From patent publication US20090023666A1, “Modulators of Hypoxia Inducible Factor-1 and Related Uses” (priority 2006, published 2009)

Key:
A549 = test: cells; type: cell-based; conditions: Homo sapiens, A549, read-out: APA (A549) IC50
Procedure: (§1) FIG. 8 is a graph depicting the mRNA levels of α-1 and α-3 isoforms quantitated by real time RT-PCR (TaqMan) using fluorescent labeled TaqMan probes. Anti-proliferation (IC50 values) activity of BNC4 on indicated cell lines was determined by MTS assay. Total alpha levels (al+a3) were plotted against (1/IC50) X100 values.

Caki-1 (CAKI) = test: cells; type: cell-based; conditions: Homo sapiens, CAKI-1, read-out: APA (Caki-1) IC50
Procedure: as §1

Na-K-ATPase [1] = target: T1, Na-K-ATPase (Canis lupus familiaris, UniProt P50997); test: Na-K-ATPase enzyme assay (inorganic phosphate liberated from ATP), dog kidney; type: biochemical
T1 construct: liberated from ATP by Dog Kidney or Porcine cerebral cortex Na-K-ATPase; from tissue; host or cells: dog kidney
Procedure: (§2) Compounds were tested for their activity on Na-K-ATPase enzyme in an in vitro enzyme assay. The ATPase activity was assayed as the amount of inorganic phosphate liberated from ATP by Dog Kidney or Porcine cerebral cortex Na-K-ATPase.

[2] = test system: 5-aminoimidazole-4-carbox-amide riboside (AICAR); test: AICAR-RA reporter assay; type: cell-based; conditions: indicative of the inhibition of glucose metabolism, read-out: AICAR-RA ED50
Na-K-ATPase [3] = test: Na-K-ATPase enzyme assay (inorganic phosphate liberated from ATP), pig brain; type: biochemical; conditions: Pig brain; read-out: ATPase Inh, IC50 Pig brain
Procedure: as §2

Panc-1 (PANC) = test: Anti-proliferative activity (APA), Panc-1; type: cell-based; conditions: Homo sapiens, PANC-1, read-out: APA (Panc-1) IC50
Procedure: as §1

[4] = in vivo; cited from earlier work
A549 sentinel line = test: Hypoxic stress response induced by cytotoxic agents in A549 sentinel line; type: cell-based; conditions: chemotherapeutic agent alone
Text: FIGS. 7A-7E are graphs depicting the stress response of A549 Sentinel Line induced by treatment with Gemcitabine (FIG. 7A) or Gemcitabine in the presence of indicated compound (FIG. 7B-7D). Untreated (control) sample is shown in shadow. […] Similar results can be achieved for other chemotherapeutic agents which induce hypoxic stress, such as paclitaxel, carboplatin, and mitoxantrone.
Similar results were obtained with carboplatin (not shown).

Panc-1 tumors = test: In vivo activity against Panc-1 human pancreatic xenograft; parameters: species or system nude mice; conditions: Gemcitabine 40 mg/kg q3d × 4
Procedure: Panc-1 tumors were injected subcutaneously (sc) into the flanks of male nude mice. After the tumors reached 60 mg in size, osmotic pumps (model 2002, Alzet Inc., flow rate 0.5 μl/hr) containing 15 mg/ml of BP244 were implanted sc on the opposite sides of the mice. The control animals received pumps containing vehicle (10% captisol, Cyclex Inc.). The mice treated with standard chemotherapy agent received intra-peritoneal injections of Gemcitabine at 40 mg/kg every 3 days for 4 treatments (q3d×4). The experiment was terminated when the control group tumor size reached an average of about 1 gram. Upon termination, the mice were weighed, sacrificed and their tumors excised. The tumors were weighed and the mean tumor weight per group was calculated.
A titration experiment was first performed on BP244 to determine its minimum effective dose against Panc-1 human pancreatic xenograft in nude mice. BP244 (sc, osmotic pumps) was first tested at 15, 10 and 5 mg/ml using Alzet pumps as in previous experiments. Gemcitabine (40 mg/kg; q3d×4, i.p.) was also included in the experiment as a comparison. […]

SMILES	IC50 (A549)	IC50 (Caki-1 (CAKI))	EC50 [2]	IC50 (Na-K-ATPase [3])	also measured
CC(=O)N1CCC(C(=O)O[C@@H]2C=C3CCC4C(CC[C@]5(C)[C@@H](c6ccc(=O)oc6)CC[C@]45O)[C@@]3(C)CC2)CC1 (some centres unmarked)	15 nM	342 nM	133 nM	396 nM	IC50 (Na-K-ATPase [1]): 270 nM
C[C@]12CC[C@H](OC(=O)C3CCNC3)C=C1CCC1C2CC[C@]2(C)[C@@H](c3ccc(=O)oc3)CC[C@]12O (some centres unmarked)	48 nM	112 nM	210 nM	480 nM	IC50 (Na-K-ATPase [1]): 299 nM
CC12CCC(OC(=O)C3CCNCC3)C=C1CCC1C2CCC2(C)C(c3ccc(=O)oc3)CCC12O (centres unmarked)	20 nM	120 nM	101 nM	136 nM	
CC12CCC(OC(=O)c3ccc(C#N)cc3)C=C1CCC1C2CCC2(C)C(c3ccc(=O)oc3)CCC12O (centres unmarked)	55 nM	84 nM	130 nM	453 nM	
CCNC(=O)O[C@@H]1C=C2CCC3C(CC[C@]4(C)[C@@H](c5ccc(=O)oc5)CC[C@]34O)[C@@]2(C)CC1 (some centres unmarked)	35 nM	82 nM	75 nM	210 nM	IC50 (Na-K-ATPase [1]): 220 nM
CC(C)(C)NC(=O)OC1C=C2CCC3C(CCC4(C)C(c5ccc(=O)oc5)CCC34O)C2(C)CC1 (centres unmarked)	45 nM	276 nM	104 nM	207 nM	
CC12CCC(OC(=O)Nc3ccc(F)cc3)C=C1CCC1C2CCC2(C)C(c3ccc(=O)oc3)CCC12O (centres unmarked)	23 nM	142 nM	100 nM	277 nM	
CCCCNC(=O)OC1C=C2CCC3C(CCC4(C)C(c5ccc(=O)oc5)CCC34O)C2(C)CC1 (centres unmarked)	24 nM	46 nM	68 nM	206 nM	
CCCNC(=O)OC1C=C2CCC3C(CCC4(C)C(c5ccc(=O)oc5)CCC34O)C2(C)CC1 (centres unmarked)	19 nM	67 nM	102 nM	198 nM	
CC12CCC(=NOCCN3CCCCC3)C=C1CCC1C2CCC2(C)C(c3ccc(=O)oc3)CCC12O (centres unmarked)	7 nM	27 nM		164 nM	IC50 (Panc-1 (PANC)): 16 nM
CCON=C1C=C2CCC3C(CCC4(C)C(c5ccc(=O)oc5)CCC34O)C2(C)CC1 (centres unmarked)	14 nM	19 nM		93 nM	
C=CCON=C1C=C2CCC3C(CCC4(C)C(c5ccc(=O)oc5)CCC34O)C2(C)CC1 (centres unmarked)	9 nM	40 nM		116 nM	
CN(C)CCON=C1C=C2CCC3C(CCC4(C)C(c5ccc(=O)oc5)CCC34O)C2(C)CC1 (centres unmarked)	2 nM	24 nM		85 nM	
C[C@]12CCC(N)C=C1CCC1C2CC[C@]2(C)[C@@H](c3ccc(=O)oc3)CC[C@]12O (some centres unmarked)	5 nM	72 nM		93 nM	
COC1O[C@@H]2[C@@H](N)[C@H](C)OC(C[C@@H]3C=C4CCC5C(CC[C@]6(C)[C@@H](c7ccc(=O)oc7)CC[C@]56O)[C@@]4(C)CC3)[C@@H]2O1 (some centres unmarked)	3 nM	12 nM		206 nM	IC50 (Panc-1 (PANC)): 11 nM
CN(C)CCN=C1CC[C@@]2(C)C(CCC3C2CC[C@]2(C)[C@@H](c4ccc(=O)oc4)CC[C@]32O)C1 (some centres unmarked)	25 nM	109 nM		171 nM	
C[C@]12CCC(NCCN3CCOCC3)CC1CCC1C2CC[C@]2(C)[C@@H](c3ccc(=O)oc3)CC[C@]12O (some centres unmarked)	101 nM	276 nM		356 nM	
C[C@@H]1OC(O[C@@H]2C=C3CCC4C(CC[C@]5(C)[C@@H](c6ccc(=O)oc6)CC[C@]45O)[C@@]3(C)CC2)[C@H](O)[C@H](O)[C@H]1N (some centres unmarked)	7 nM	56 nM		540 nM	IC50 (Panc-1 (PANC)): 21 nM
CN(C)/N=C1/C=C2CCC3C(CC[C@]4(C)[C@@H](c5ccc(=O)oc5)CC[C@]34O)[C@@]2(C)CC1 (some centres unmarked)	23 nM	118 nM	102 nM	196 nM	
COC1O[C@@H]2C(=O)[C@H](C)OC(O[C@@H]3C=C4CCC5C(CC[C@]6(C)[C@@H](c7ccc(=O)oc7)CC[C@]56O)[C@@]4(C)CC3)[C@@H]2O1 (some centres unmarked)		26 nM		169 nM	
C[C@@H]1CC(O[C@@H]2C=C3CCC4C(CC[C@]5(C)[C@@H](c6ccc(=O)oc6)CC[C@]45O)[C@@]3(C)CC2)[C@H](O)[C@H](O)[C@@H]1O (some centres unmarked)	9 nM	24 nM		129 nM	
C[C@@H]1O[C@@H](O[C@H]2C[C@@H](O)[C@]3(CO)[C@H]4[C@H](O)C[C@]5(C)[C@@H](C6=CC(=O)OC6)CC[C@]5(O)[C@@H]4CC[C@]3(O)C2)[C@H](O)[C@H](O)[C@H]1O [BNC1, ouabain]					max. plasma concentration [4]: about 0.03 μg/mL
Nc1ccn([C@@H]2O[C@H](CO)[C@@H](O)C2(F)F)c(=O)n1 [Gemcitabine, reference compound]					hypoxic response visualized by A549 sentinel line (A549 sentinel line): further induce hypoxic response; % TGI (d24) (Panc-1 tumors): 65%; % Wt Change (d24) (Panc-1 tumors): 2.60%; Av. Tumor Weight (Panc-1 tumors): 414.3 mg
